{"source": "patent US9550763B2", "about": "“Heterocyclic ring and carbocyclic derivative” (Shionogi & Co., Ltd., priority 2012, dated 2017)", "data": [{"biological_target": "human P2X3 receptor (Homo sapiens (Human), UniProt P56373)", "sequence (P56373 whole entry)": "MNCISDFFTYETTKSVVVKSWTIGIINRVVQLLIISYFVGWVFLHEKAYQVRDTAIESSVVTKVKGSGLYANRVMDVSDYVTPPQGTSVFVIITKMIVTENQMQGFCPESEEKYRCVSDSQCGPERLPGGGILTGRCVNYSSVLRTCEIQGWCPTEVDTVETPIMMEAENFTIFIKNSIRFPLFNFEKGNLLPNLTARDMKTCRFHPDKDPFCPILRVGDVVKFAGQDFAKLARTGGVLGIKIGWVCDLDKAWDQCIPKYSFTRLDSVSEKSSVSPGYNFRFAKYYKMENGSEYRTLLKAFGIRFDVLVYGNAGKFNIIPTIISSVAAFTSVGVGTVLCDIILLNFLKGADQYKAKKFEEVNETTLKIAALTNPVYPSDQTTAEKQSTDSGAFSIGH", "assay": "Evaluation of human P2X3 receptor inhibitory activity (Test Example 1-1, FDSS 3000, 96-well, 50 nM ATP)", "type": "cell-based", "details": "human P2X3 receptor in C6BU-1 cells; Test Example 1-1 (compounds I-001 to I-300)", "experimental": "Stably expressing cell line (C6BU-1 cell transfected with human P2X3 receptor gene (GenBank accession number Y07683) was used. The cells were seeded in a 96-well microtiter plate at a concentration of 8000 cells/well and cultured in the medium (7.0% fetal bovine serum, 7.0% horse serum, 1% antibiotic and antifungal in DMEM) for one day at 37° C. under 5% carbon dioxide atmosphere. The medium was replaced with 4 μM Fluo-3-AM solution (20 mM HEPES, 137 mM NaCl, 5.27 mM KCl, 0.9 mM MgCl2, 1.26 mM CaCl2, 5.6 mM D-glucose, 2.5 mM probenecid, 1% BSA, and 0.08% Pluronic F-127, pH 7.5) and incubated at 37° C. under 5% dioxide carbon atmosphere for one hour. The plate was washed with washing buffer (20 mM HEPES, 137 mM NaCl, 5.27 mM KCl, 0.9 mM MgCl2, 1.26 mM CaCl2, 5.6 mM D-glucose, 2.5 mM probenecid, pH7.5), and each well was added with 40 μL of this buffer. The plate was placed in High-Throughput Screening System. FDSS 3000 (Hamamatsu Photonics K.K.). Measurement of fluorescence intensity by FDSS 3000 was started, and 40 μL of DMSO solutions containing different concentrations of the test compound as prepared by dilution with dilution buffer (20 mM HEPES, 137 mM NaCl, 5.27 mM KCl, 0.9 mM MgCl2, 1.26 mM CaCl2, 5.68 mM D-glucose, 2.5 mM probenecid, 0.1% Pluronic F-127, pH7.5) were dispensed to each well through the built-in automatic dispenser. Five minutes after, 50 nM ATP solution (50 μL) prepared by dilution with the dilution buffer was dispensed through the built-in automatic dispenser, and the measurement of fluorescence intensity was continued for 4 min. For each well, the specific maximum fluorescence intensity was calculated as the ratio of the maximum fluorescence intensity after addition of the ATP solution to the fluorescence intensity at the starting of the measurement. The 50% inhibitory concentration (IC50) was calculated under the assumption that the specific maximum fluorescence intensity without test compound is 0% inhibition and that the specific maximum fluorescence intensity when the dilution buffer was added in place of ATP solution is 100% inhibition, to evaluate the inhibitory activity of the test compound. FDSS software (Hamamatsu Photonics K.K.) was used for calculation of the specific maximum fluorescence intensity. IC50 was calculated using Microsoft Excel (Microsoft Corporation) and XLfit (idbs Ltd.)\nThe data of the compounds I-001 to I-300 are the results by the method mentioned in Test Example 1-1, and the data of the compounds I-301 to I-483 are the results by the method mentioned in Test Example 1-2.", "units": {"IC50": "µM"}, "values": [{"smiles": "O=C(NC1CCOCC1)c1cn(Cc2ccccc2)c(Nc2ccc(Oc3cccc(F)n3)cc2)nc1=O", "note": "[Compound I-280]", "IC50": 0.139}, {"smiles": "O=C(NC1CCOCC1)c1cn(Cc2ccc(Cl)cc2)c(Nc2ccc(Oc3ncccc3F)cc2)nc1=O", "note": "[Compound I-155]", "IC50": 0.017}, {"smiles": "CCc1oc2ccc(Nc3ncc(C(N)=O)c(=O)n3Cc3ccc(Cl)cc3)cc2c1C", "note": "[Compound I-020]", "IC50": 0.05}, {"smiles": "Cc1cnc(-c2c[nH]/c(=N\\c3ccc(Oc4cccc(C(=O)O)n4)cc3)n(Cc3ccc(Cl)cc3)c2=O)o1", "note": "[Compound I-290, 1-(4-chlorobenzyl)-2-[4-(6-hydroxycarbonyl-2-pyridyloxy)phenylamino]-5-(5-methyloxazol-2-yl)pyrimidin-6(1H)-one]", "IC50": 0.004}, {"smiles": "CC(=O)Nc1cnc(Nc2ccc(Oc3cccnn3)cc2)n(Cc2ccc(Cl)cc2)c1=O", "note": "[Compound I-069]", "IC50": 0.068}, {"smiles": "CCCn1c(=O)cc(Nc2ccc(Oc3cccc(C(=O)OCC)c3)cn2)n(Cc2ccc(Cl)cc2)c1=O", "note": "[Compound I-166]", "IC50": 0.169}, {"smiles": "O=C(Nc1c[nH]/c(=N\\c2ccc(Oc3ccon3)cc2)n(Cc2ccc(Cl)cc2)c1=O)C1CCOC1", "note": "(centres unmarked) [Compound I-213]", "IC50": 0.027}, {"smiles": "O=c1c(-c2ccccn2)c[nH]/c(=N\\c2ccc(Oc3ccon3)cc2)n1Cc1ccc(Cl)cc1", "note": "[Compound I-272]", "IC50": 0.211}, {"smiles": "CCc1oc2ccc(/N=c3\\[nH]cc(CC(N)=O)c(=O)n3Cc3ccc(Cl)cc3)cc2c1C", "note": "[Compound I-084]", "IC50": 0.103}, {"smiles": "CCOC(=O)c1cnc(Nc2ccc(Oc3cccc(C(N)=O)n3)cc2)n(Cc2ccc(Cl)cc2)c1=O", "note": "[Compound I-043]", "IC50": 0.007}, {"smiles": "O=c1c(-c2cccnc2O)c[nH]/c(=N\\c2ccc(Oc3ccon3)cc2)n1Cc1ccc(Cl)cc1", "note": "[Compound I-194]", "IC50": 0.658}, {"smiles": "CN(C)C(=O)c1c[nH]/c(=N\\c2ccc(Oc3cccc(C(N)=O)n3)cc2)n(Cc2ccc(Cl)cc2)c1=O", "note": "[Compound I-220]", "IC50": 0.178}, {"smiles": "COC(=O)Nc1c[nH]/c(=N\\c2ccc(Oc3cccc(C(N)=O)n3)cc2)n(Cc2ccc(Cl)cc2)c1=O", "note": "[Compound I-007]", "IC50": 0.023}, {"smiles": "CCn1c(=O)cc(Nc2ccc(Oc3ccc(C(=O)OC)cc3)cn2)n(Cc2ccc(Cl)cc2)c1=O", "note": "[Compound I-052]", "IC50": 0.021}, {"smiles": "CCn1c(=O)cc(Nc2ccc(Oc3cccc(C#N)n3)cc2)n(Cc2ccc(Cl)cc2)c1=O", "note": "[Compound I-009]", "IC50": 0.005}, {"smiles": "NC(=O)c1cccc(Oc2ccc(Nc3cc(=O)[nH]c(=O)n3Cc3ccc(Cl)cc3)cc2)n1", "note": "[Compound I-066]", "IC50": 0.081}, {"smiles": "CCc1c[nH]/c(=N\\c2ccc(Oc3cccc(C(=O)O)n3)c(C)c2)n(Cc2ccc(Cl)cc2)c1=O", "note": "[Compound I-148]", "IC50": 0.059}, {"smiles": "CCc1oc2ccc(/N=c3\\[nH]cc(C(C)=O)c(=O)n3Cc3ccc(Cl)cc3)cc2c1C", "note": "[Compound I-073]", "IC50": 0.14}, {"smiles": "CCOC(=O)c1c[nH]/c(=N\\c2ccc(Oc3cccc(C#N)n3)cc2)n(Cc2ccc(Cl)cc2)c1=O", "note": "[Compound I-153]", "IC50": 0.021}, {"smiles": "CCn1c(=O)cc(Nc2ccc(Oc3cccc(C#N)n3)c(F)c2)n(Cc2ccc(Cl)cc2)c1=O", "note": "[Compound I-011]", "IC50": 0.002}, {"smiles": "C[C@@H](Cn1c(=O)cc(Nc2ccc(Oc3cccc(C(N)=O)n3)c(F)c2)n(Cc2ccc(Cl)cc2)c1=O)C(=O)O", "note": "[Compound I-126]", "IC50": 0.003}, {"smiles": "CCc1oc2ccc(/N=c3\\[nH]cc(C=O)c(=O)n3Cc3ccc(Cl)cc3)cc2c1C", "note": "[Compound I-045]", "IC50": 0.226}, {"smiles": "O=c1cc[nH]/c(=N\\c2ccc(Oc3ccc(F)cn3)cc2)n1Cc1ccc(Cl)cc1", "note": "[Compound I-152]", "IC50": 0.291}, {"smiles": "CCn1c(=O)cc(Nc2ccc(Oc3cccc(C#N)c3)c(C)n2)n(Cc2ccc(Cl)cc2)c1=O", "note": "[Compound I-246]", "IC50": 0.071}, {"smiles": "CCOC(=O)c1c[nH]/c(=N\\c2ccc(Oc3cccc(F)n3)cc2)n(Cc2ccc(Cl)cc2)c1=O", "note": "[Compound I-018]", "IC50": 0.013}, {"smiles": "O=c1c(NC(=O)[C@H]2C[C@@H](F)C2)c[nH]/c(=N\\c2ccc(Oc3ccon3)cc2)n1Cc1ccc(Cl)cc1", "note": "[Compound I-219]", "IC50": 0.014}, {"smiles": "NC(=O)c1c[nH]/c(=N\\c2ccc(Oc3cccc(F)n3)cc2)n(Cc2ccc(Cl)cc2)c1=O", "note": "[Compound I-034]", "IC50": 0.014}, {"smiles": "CCc1oc2ccc(/N=c3\\[nH]cc(CN4CCOCC4)c(=O)n3Cc3ccc(Cl)cc3)cc2c1C", "note": "[Compound I-057]", "IC50": 0.269}, {"smiles": "Cc1ccc(Oc2ccc(Nc3ncc(NC(=O)C4CCOCC4)c(=O)n3Cc3ccc(Cl)cc3)cc2)nn1", "note": "[Compound I-137]", "IC50": 0.001}, {"smiles": "CN(C(=O)C1CCOCC1)c1c[nH]/c(=N\\c2ccc(Oc3ccon3)cc2)n(Cc2ccc(Cl)cc2)c1=O", "note": "[Compound I-109]", "IC50": 0.034}, {"smiles": "CCN/C(=N\\C#N)Nc1c[nH]/c(=N\\c2ccc(Oc3ccon3)cc2)n(Cc2ccc(Cl)cc2)c1=O", "note": "[Compound I-251]", "IC50": 0.118}, {"smiles": "CC(=O)Nc1cnc(Nc2ccc(Oc3ccon3)cc2)n(Cc2ccc(Cl)cc2)c1=O", "note": "[Compound I-065]", "IC50": 0.099}, {"smiles": "O=C(O)c1c[nH]/c(=N\\c2ccc(Oc3cccc(F)n3)cc2)n(Cc2ccc(Cl)cc2)c1=O", "note": "[Compound I-029]", "IC50": 0.236}, {"smiles": "CCC(=O)Nc1c[nH]/c(=N\\c2ccc(Oc3ccc(C(=O)O)nc3)cc2)n(Cc2ccc(Cl)cc2)c1=O", "note": "[Compound I-092]", "IC50": 0.019}, {"smiles": "CCn1c(=O)cc(Nc2ccc(Oc3ccc(C(=O)O)cc3)nc2)n(Cc2ccc(Cl)cc2)c1=O", "note": "[Compound I-063]", "IC50": 0.422}, {"smiles": "CCC(=O)Nc1c[nH]/c(=N\\c2ccc(Oc3cncc(C)n3)cc2)n(Cc2ccc(Cl)cc2)c1=O", "note": "[Compound I-145]", "IC50": 0.04}, {"smiles": "CCc1oc2ccc(/N=c3\\[nH]cc(CC(=O)O)c(=O)n3Cc3ccc(Cl)cc3)cc2c1C", "note": "[Compound I-074]", "IC50": 0.828}, {"smiles": "C=C(C)c1c[nH]/c(=N\\c2ccc(Oc3cccc(C#N)n3)cc2)n(Cc2ccc(Cl)cc2)c1=O", "note": "[Compound I-147]", "IC50": 0.112}, {"smiles": "CCC(=O)Nc1c[nH]/c(=N\\c2ccc(Oc3ccnc(C(N)=O)c3)cc2)n(Cc2ccc(Cl)cc2)c1=O", "note": "[Compound I-106]", "IC50": 0.007}, {"smiles": "CCc1oc2ccc(Nc3ncc(NC(=O)C4CCOCC4)c(=O)n3Cc3ccc(Cl)c(Cl)c3)cc2c1C", "note": "[Compound I-079]", "IC50": 0.058}, {"smiles": "CCC(=O)N(C)c1c[nH]/c(=N\\c2ccc(Oc3cccc(C#N)n3)cc2)n(Cc2ccc(Cl)cc2)c1=O", "note": "[Compound I-198]", "IC50": 0.012}, {"smiles": "Cc1cc(C(=O)Nc2c[nH]/c(=N\\c3ccc(Oc4ccon4)cc3)n(Cc3ccc(Cl)cc3)c2=O)on1", "note": "[Compound I-255]", "IC50": 0.147}, {"smiles": "CCc1oc2ccc(/N=c3\\[nH]cc(CC(C)=O)c(=O)n3Cc3ccc(Cl)cc3)cc2c1C", "note": "[Compound I-102]", "IC50": 0.267}, {"smiles": "CCn1c(=O)cc(Nc2ccc(Oc3cccc(C(=O)O)c3)nc2)n(Cc2ccc(Cl)cc2)c1=O", "note": "[Compound I-062]", "IC50": 0.049}, {"smiles": "CCOC(=O)c1c[nH]/c(=N\\c2ccc(Oc3ccc(C)nn3)cc2)n(Cc2ccc(Cl)cc2)c1=O", "note": "[Compound I-177]", "IC50": 0.014}, {"smiles": "CCOC(=O)c1c[nH]/c(=N\\c2ccc(Oc3ccc(F)cn3)cc2)n(Cc2ccc(Cl)cc2)c1=O", "note": "[Compound I-128]", "IC50": 0.035}, {"smiles": "CCC(=O)Nc1c[nH]/c(=N\\c2ccc(Oc3ccon3)cc2)n(Cc2ccc(Cl)cc2)c1=O", "note": "[Compound I-088]", "IC50": 0.049}, {"smiles": "Cc1ccc(Oc2ccc(/N=c3\\[nH]cc(C(=O)O)c(=O)n3Cc3ccc(Cl)cc3)cc2)nn1", "note": "[Compound I-179]", "IC50": 0.359}, {"smiles": "CCn1c(=O)cc(Nc2ccc(Oc3cccc(C(=O)O)n3)c(C)c2)n(Cc2ccc(Cl)cc2)c1=O", "note": "[Compound I-028]", "IC50": 0.001}, {"smiles": "CCCn1c(=O)cc(Nc2ccc(Oc3cccc(C(=O)O)c3)cn2)n(Cc2ccc(Cl)cc2)c1=O", "note": "[Compound I-167]", "IC50": 0.035}, {"smiles": "CCCn1c(=O)cc(Nc2ccc(Oc3cccc(C(=O)O)c3)cc2)n(Cc2ccc(Cl)cc2)c1=O", "note": "[Compound I-169]", "IC50": 0.011}, {"smiles": "O=C(Nc1c[nH]/c(=N\\c2ccc(Oc3ccon3)cc2)n(Cc2ccc(Cl)cc2)c1=O)c1ccccn1", "note": "[Compound I-254]", "IC50": 0.868}, {"smiles": "Cn1cc(C(=O)Nc2c[nH]/c(=N\\c3ccc(Oc4ccon4)cc3)n(Cc3ccc(Cl)cc3)c2=O)cn1", "note": "[Compound I-233]", "IC50": 0.236}, {"smiles": "N#C/N=C(/Nc1c[nH]/c(=N\\c2ccc(Oc3ccon3)cc2)n(Cc2ccc(Cl)cc2)c1=O)Oc1ccccc1", "note": "[Compound I-237]", "IC50": 0.219}, {"smiles": "CCc1oc2ccc(Nc3ncc(C(=O)NCCO)c(=O)n3Cc3ccc(Cl)cc3)cc2c1C", "note": "[Compound I-032]", "IC50": 0.034}, {"smiles": "O=C(Nc1cnc(Nc2ccc(Oc3nccs3)cc2)n(Cc2ccc(Cl)cc2)c1=O)C1CCOCC1", "note": "[Compound I-131]", "IC50": 0.002}]}]}
